Laboratory results: publication PMC13181761, “New Analogs of the Compstatin Family of Clinical Complement Inhibitors with Low Picomolar Target Affinity” (Journal of Medicinal Chemistry, 2026)
Like-named read-outs stand apart in the source and are kept apart here. Where a SMILES comes first, the peptide text is derived from it. Bridges are numbered along the chain shown (N, C = ends). [ ]: non-standard residue; d: D form. Trp(1-Me) = Cn1cc(C[C@H](N)C(=O)O)c2ccccc21; Bta = N[C@@H](Cc1csc2ccccc12)C(=O)O; Asu = N[C@@H](CCCCCC(=O)O)C(=O)O; NMeI = CC[C@H](C)[C@H](NC)C(=O)O; aIle = CC[C@@H](C)[C@H](N)C(=O)O; Orn = NCCC[C@H](N)C(=O)O; Sar = CNCC(=O)O

Target: T1, human C3b (Homo sapiens, UniProt P01024)
T1 construct: purchased Complement Technology, Tyler, TX, USA
Experiment: SPR kinetic binding to immobilized human C3b
Conditions: for fold affinity drop / weaker affinity compared with Cp01: K D ratio vs Cp01
Method: Experiments were conducted at 25 °C in HBST buffer (10 mM HEPES, 150 mM NaCl, and 0.05% Tween-20, pH 7.4; XanTec bioanalytics). Human C3b (Complement Technology, Tyler, TX, USA) was immobilized via amine-reactive coupling. […] Individual peptide samples were injected for 120 s, followed by a 180 s dissociation phase. […] Signals from the reference cell and buffer blank injections were subtracted within each dilution series to correct for buffer effects and injection artifacts. Data were fitted to a Langmuir 1:1 binding model to calculate association (k a) and dissociation (k d) rate constants, and the equilibration constant K D is calculated based on the equation: K D = k d/k a. In the case of Cp40 derivatives and Cp60, a single-cycle approach was used for kinetic analysis by injecting 5 increasing concentrations of each compound (0.5-40 nM) consecutively without a regeneration period in between injections. Individual injections within a cycle were 120 s long with a 5 min dissociation phase between injections. […] Analog Cp40 was included in each experimental series as a reference and internal control. Signals from the reference cell and buffer blank injections were subtracted to correct for buffer effects and injection artifacts. Kinetic data were processed in BiaEvaluation (Cytiva) using single-cycle evaluation by global fitting each data set to a Langmuir 1:1 binding model. The reported kinetic parameters (Tables and ) indicate the mean values and standard deviations of three independent experiments. SPR sensorgrams are provided in the Supporting Information.

[1] = SPR, 1:1 Langmuir fit, average of 3 independent experiments, SD in brackets
[2] = SPR, 1:1 Langmuir fit, average of 3 independent experiments, SD in brackets, read-out: K D, affinity hC3b
[3] = SPR screening at 2 and 1 μM, series up to 16 μM, read-out: affinity hC3b (class symbol N.B./W.B.)

T1 sequence (P01024 23-667 limits assumed): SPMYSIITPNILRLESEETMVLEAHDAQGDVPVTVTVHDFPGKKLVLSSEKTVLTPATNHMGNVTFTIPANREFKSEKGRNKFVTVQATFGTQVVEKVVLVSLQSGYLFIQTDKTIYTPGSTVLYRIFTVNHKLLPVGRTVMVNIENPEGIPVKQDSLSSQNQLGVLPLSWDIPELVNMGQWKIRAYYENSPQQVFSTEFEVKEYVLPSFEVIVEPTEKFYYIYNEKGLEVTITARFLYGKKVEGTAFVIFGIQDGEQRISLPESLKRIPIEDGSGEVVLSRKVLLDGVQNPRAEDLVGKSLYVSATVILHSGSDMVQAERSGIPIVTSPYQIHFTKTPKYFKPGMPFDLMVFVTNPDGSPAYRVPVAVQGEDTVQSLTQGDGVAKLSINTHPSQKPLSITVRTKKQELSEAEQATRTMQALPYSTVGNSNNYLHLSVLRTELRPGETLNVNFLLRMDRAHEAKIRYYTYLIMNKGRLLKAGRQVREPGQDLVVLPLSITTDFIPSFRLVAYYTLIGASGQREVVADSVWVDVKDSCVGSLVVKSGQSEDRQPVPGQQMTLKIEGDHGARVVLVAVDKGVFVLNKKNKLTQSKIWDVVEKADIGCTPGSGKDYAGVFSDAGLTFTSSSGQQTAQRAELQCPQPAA
T1 sequence (P01024 749-1663 partner limits assumed): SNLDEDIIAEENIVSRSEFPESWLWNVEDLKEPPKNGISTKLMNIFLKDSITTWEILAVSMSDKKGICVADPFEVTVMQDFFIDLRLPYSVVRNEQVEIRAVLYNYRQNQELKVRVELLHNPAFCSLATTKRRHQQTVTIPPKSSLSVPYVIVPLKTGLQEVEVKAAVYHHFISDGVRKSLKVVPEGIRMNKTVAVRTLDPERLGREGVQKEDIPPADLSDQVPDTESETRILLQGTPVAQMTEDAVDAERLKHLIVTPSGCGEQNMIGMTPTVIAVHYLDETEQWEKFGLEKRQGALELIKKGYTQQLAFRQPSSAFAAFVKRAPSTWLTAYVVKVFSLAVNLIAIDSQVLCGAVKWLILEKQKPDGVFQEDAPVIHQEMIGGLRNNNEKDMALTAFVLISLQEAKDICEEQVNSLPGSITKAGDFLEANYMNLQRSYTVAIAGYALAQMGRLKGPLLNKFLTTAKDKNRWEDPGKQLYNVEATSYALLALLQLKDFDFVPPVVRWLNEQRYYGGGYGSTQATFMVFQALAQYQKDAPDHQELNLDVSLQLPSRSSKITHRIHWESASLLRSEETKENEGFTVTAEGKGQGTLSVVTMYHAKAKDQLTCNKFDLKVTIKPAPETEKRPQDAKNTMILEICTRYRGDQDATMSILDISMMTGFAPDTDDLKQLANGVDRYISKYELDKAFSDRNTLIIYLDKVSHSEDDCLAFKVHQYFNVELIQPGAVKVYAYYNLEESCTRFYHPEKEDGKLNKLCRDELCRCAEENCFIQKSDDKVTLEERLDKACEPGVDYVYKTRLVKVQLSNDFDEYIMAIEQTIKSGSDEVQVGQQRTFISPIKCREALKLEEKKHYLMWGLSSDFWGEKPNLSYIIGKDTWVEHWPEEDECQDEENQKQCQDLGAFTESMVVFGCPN

Row | SMILES | k a, affinity hC3b [1] | k d, affinity hC3b [1] | Kd [2] [nM] | Kd [3] [nM] | other results
1 | CC[C@H](C)[C@H](NC(C)=O)C(=O)N[C@H]1CSSC[C@@H](C(=O)N[C@H](C(N)=O)[C@@H](C)O)NC(=O)[C@H](CCCNC(=N)N)NC(=O)[C@H](Cc2c[nH]cn2)NC(=O)[C@H](C)NC(=O)CNC(=O)[C@H](Cc2c[nH]c3ccccc23)NC(=O)[C@H](CCCCCC(=O)O)NC(=O)[C@H](CCC(N)=O)NC(=O)[C@H](Cc2c[nH]c3ccccc23)NC(=O)[C@H](C(C)C)NC1=O [Cp01-Asp6Asu] (Ac-ICVWQ[Asu]WGAHRCT-NH2; disulfide 2-12) | 1.2(0.5) 10^5 M^–1 s^–1 | 23(4) 10^–2 s^–1 | – | – | fold affinity drop / weaker affinity compared with Cp01: 10 fold
2 | CC[C@H](C)[C@H](NC(C)=O)C(=O)N[C@H]1CSSC[C@@H](C(=O)N[C@H](C(N)=O)[C@@H](C)O)NC(=O)[C@H](CCCNC(=N)N)NC(=O)[C@H](Cc2c[nH]cn2)NC(=O)[C@H](C)NC(=O)CNC(=O)[C@H](Cc2c[nH]c3ccccc23)NC(=O)[C@H](CC(=O)O)NC(=O)[C@H](CCCN)NC(=O)[C@H](Cc2c[nH]c3ccccc23)NC(=O)[C@H](C(C)C)NC1=O [Cp01-Gln5Orn] (Ac-ICVW[Orn]DWGAHRCT-NH2; disulfide 2-12) | – | – | – | > 2000 | binding to C3b (result in words) (SPR): no detectable target binding
3 | CC[C@H](C)[C@H](NC(C)=O)C(=O)N[C@H]1CSSC[C@@H](C(=O)N[C@H](C(N)=O)[C@@H](C)O)NC(=O)[C@H](CCCNC(=N)N)NC(=O)[C@H](Cc2c[nH]cn2)NC(=O)[C@H](C)NC(=O)CNC(=O)[C@H](Cc2c[nH]c3ccccc23)NC(=O)[C@H](CC(=O)O)NC(=O)[C@H](CCC(N)=O)NC(=O)[C@H](Cc2c[nH]c3ccccc23)NC(=O)C(C)(C)NC1=O [Cp01-Val3Aib] | – | – | – | > 2000 | –
4 | CC[C@H](C)[C@H](NC(C)=O)C(=O)N[C@H]1CSSC[C@@H](C(=O)N[C@H](C(N)=O)[C@@H](C)O)NC(=O)[C@H](CCCNC(=N)N)NC(=O)[C@H](Cc2c[nH]cn2)NC(=O)[C@H](C)NC(=O)CNC(=O)[C@H](Cc2c[nH]c3ccccc23)NC(=O)[C@H](CC(=O)O)NC(=O)[C@H](CCC(N)=O)NC(=O)[C@H](Cc2c[nH]c3ccccc23)NC(=O)[C@H](Cc2ccc(O)cc2)NC1=O [Cp01 Val3Tyr] (Ac-ICYWQDWGAHRCT-NH2; disulfide 2-12) | – | – | – | > 2000 | –
5 | CC[C@H](C)[C@H](NC(C)=O)C(=O)N[C@H]1CSSC[C@@H](C(=O)N[C@H](C(N)=O)[C@@H](C)O)NC(=O)[C@H](CCCNC(=N)N)NC(=O)[C@H](Cc2c[nH]cn2)NC(=O)[C@H](C)NC(=O)[C@@H](C)NC(=O)[C@H](Cc2c[nH]c3ccccc23)NC(=O)[C@H](CC(=O)O)NC(=O)[C@H](CCC(N)=O)NC(=O)[C@H](Cc2c[nH]c3ccccc23)NC(=O)[C@H](C(C)C)NC1=O [Cp01-Gly8dAla] (Ac-ICVWQDW[dA]AHRCT-NH2; disulfide 2-12) | – | – | – | > 16000 | binding to C3b (result in words) (SPR): diminished target binding
6 | CC[C@H](C)[C@H](NC(C)=O)C(=O)N[C@H]1CSSC[C@@H](C(=O)N[C@H](C(N)=O)[C@@H](C)O)NC(=O)[C@H](CCCNC(=N)N)NC(=O)[C@H](Cc2c[nH]cn2)NC(=O)[C@H](C)NC(=O)CNC(=O)[C@H](Cc2c[nH]c3ccccc23)NC(=O)[C@H](CCC(=O)O)NC(=O)[C@H](CCC(N)=O)NC(=O)[C@H](Cc2c[nH]c3ccccc23)NC(=O)[C@H](C(C)C)NC1=O [Cp01-Asp6Glu] (Ac-ICVWQEWGAHRCT-NH2; disulfide 2-12) | 3.8(1.6) 10^5 M^–1 s^–1 | 18(2) 10^–2 s^–1 | 528 | – | fold affinity drop / weaker affinity compared with Cp01: 2 fold
7 | CC[C@H](C)[C@H](NC(C)=O)C(=O)N[C@H]1CSSC[C@@H](C(=O)N[C@H](C(N)=O)[C@@H](C)O)NC(=O)[C@H](CCCNC(=N)N)NC(=O)[C@H](Cc2c[nH]cn2)NC(=O)[C@H](C)NC(=O)CNC(=O)[C@H](Cc2c[nH]c3ccccc23)NC(=O)[C@H](CC(=O)O)NC(=O)[C@H](CCCCN)NC(=O)[C@H](Cc2c[nH]c3ccccc23)NC(=O)[C@H](C(C)C)NC1=O [Cp01-Gln5Lys] (Ac-ICVWKDWGAHRCT-NH2; disulfide 2-12) | – | – | – | > 2000 | binding to C3b (result in words) (SPR): no detectable target binding
8 | CC[C@H](C)[C@H](NC(C)=O)C(=O)N[C@H]1CSSC[C@@H](C(=O)N[C@H](C(N)=O)[C@@H](C)O)NC(=O)[C@H](CO)NC(=O)[C@H](Cc2c[nH]cn2)NC(=O)[C@H](C)NC(=O)CNC(=O)[C@H](Cc2c[nH]c3ccccc23)NC(=O)[C@H](CC(=O)O)NC(=O)[C@H](CCC(N)=O)NC(=O)[C@H](Cc2c[nH]c3ccccc23)NC(=O)[C@H](C(C)C)NC1=O [Cp01-Arg11Ser] (Ac-ICVWQDWGAHSCT-NH2; disulfide 2-12) | 3.3(1.2) 10^5 M^–1 s^–1 | 16(3) 10^–2 s^–1 | 529 | – | fold affinity drop / weaker affinity compared with Cp01: ~2 fold

Now from value to compound, other results behind:

Row | k a, affinity hC3b [1] | k d, affinity hC3b [1] | Kd [2] [nM] | Kd [3] [nM] | SMILES | other results
9 | 3.1(0.9) 10^5 M^–1 s^–1 | 18(3) 10^–2 s^–1 | 609 | – | CC[C@H](C)[C@H](NC(C)=O)C(=O)N[C@H]1CSSC[C@@H](C(=O)N[C@H](C(N)=O)[C@@H](C)O)NC(=O)[C@H](CCCNC(=N)N)NC(=O)[C@H](Cc2c[nH]cn2)NC(=O)[C@H](C)NC(=O)CNC(=O)[C@H](Cc2c[nH]c3ccccc23)NC(=O)[C@H](CO)NC(=O)[C@H](CCC(N)=O)NC(=O)[C@H](Cc2c[nH]c3ccccc23)NC(=O)[C@H](C(C)C)NC1=O [Cp01-Asp6Ser] (Ac-ICVWQSWGAHRCT-NH2; disulfide 2-12) | –
10 | 3.0(0.8) 10^5 M^–1 s^–1 | 15(2) 10^–2 s^–1 | 502 | – | CC[C@H](C)[C@H](NC(C)=O)C(=O)N[C@H]1CSSC[C@@H](C(=O)N[C@H](C(N)=O)[C@@H](C)O)NC(=O)[C@H](CCCCN)NC(=O)[C@H](Cc2c[nH]cn2)NC(=O)[C@H](C)NC(=O)CNC(=O)[C@H](Cc2c[nH]c3ccccc23)NC(=O)[C@H](CC(=O)O)NC(=O)[C@H](CCC(N)=O)NC(=O)[C@H](Cc2c[nH]c3ccccc23)NC(=O)[C@H](C(C)C)NC1=O [Cp01-Arg11Lys] (Ac-ICVWQDWGAHKCT-NH2; disulfide 2-12) | fold affinity drop / weaker affinity compared with Cp01: ~2 fold
11 | – | – | – | > 2000 | CC[C@H](C)[C@H](NC(C)=O)C(=O)N[C@H]1CSSC[C@@H](C(=O)N[C@H](C(N)=O)[C@@H](C)O)NC(=O)[C@H](CCCNC(=N)N)NC(=O)[C@H](Cc2c[nH]cn2)NC(=O)[C@H](C)NC(=O)[C@H](C)NC(=O)[C@H](Cc2c[nH]c3ccccc23)NC(=O)[C@H](CC(=O)O)NC(=O)[C@H](CCC(N)=O)NC(=O)[C@H](Cc2c[nH]c3ccccc23)NC(=O)[C@H](C(C)C)NC1=O [Cp01-Gly8Ala] (Ac-ICVWQDWAAHRCT-NH2; disulfide 2-12) | binding to C3b (result in words) (SPR): diminished target binding
12 | – | – | 1.5 | – | CC[C@H](C)[C@H](NC(C)=O)C(=O)N[C@H]1CSSC[C@@H](C(=O)N[C@H](C(N)=O)[C@@H](C)O)NC(=O)[C@H](CCCNC(=N)N)NC(=O)[C@H](Cc2c[nH]cn2)NC(=O)[C@H](C)NC(=O)CNC(=O)[C@H](Cc2c[nH]c3ccccc23)NC(=O)[C@H](CC(=O)O)NC(=O)[C@H](CCC(N)=O)NC(=O)[C@H](Cc2cn(C)c3ccccc23)NC(=O)[C@H]([C@@H](C)CC)NC1=O [Cp05-Val3Ile] (Ac-ICI[Trp(1-Me)]QDWGAHRCT-NH2; disulfide 2-12) | koff (SPR, read-out: dissociation rate k d): 0.002 s⁻¹
13 | 2.0(0.5) 10^5 M^–1 s^–1 | 11(1) 10^–2 s^–1 | 552 | – | CC[C@H](C)[C@H](NC(C)=O)C(=O)N[C@H]1CSSC[C@@H](C(=O)N[C@H](C(N)=O)[C@@H](C)O)NC(=O)[C@H](CCCNC(=N)N)NC(=O)[C@H](Cc2c[nH]cn2)NC(=O)[C@H](C)NC(=O)CNC(=O)[C@H](Cc2c[nH]c3ccccc23)NC(=O)[C@H](CC(=O)O)NC(=O)[C@H](CCC(N)=O)NC(=O)[C@H](Cc2c[nH]c3ccccc23)NC(=O)[C@H](CC(C)C)NC1=O [Cp01-Val3Leu] (Ac-ICLWQDWGAHRCT-NH2; disulfide 2-12) | –
14 | 4.6(0.7) 10^5 M^–1 s^–1 | 0.7(0.3) 10^–2 s^–1 | 15.6 | – | CC[C@@H](C)[C@@H]1NC(=O)[C@@H](NC(=O)[C@@H](NC(=O)[C@H](N)Cc2ccc(O)cc2)[C@@H](C)CC)CSSC[C@@H](C(=O)N(C)[C@H](C(N)=O)[C@@H](C)CC)NC(=O)[C@H](CCCNC(=N)N)NC(=O)[C@H](Cc2c[nH]cn2)NC(=O)[C@H](C)NC(=O)CN(C)C(=O)[C@H](Cc2c[nH]c3ccccc23)NC(=O)[C@H](CC(=O)O)NC(=O)[C@H](CCC(N)=O)NC(=O)[C@H](Cc2cn(C)c3ccccc23)NC1=O [Cp40-Val3aIle] (H-[dY]IC[aIle][Trp(1-Me)]QDW[Sar]AHRC[NMeI]-NH2; disulfide 3-13) | –
15 | – | – | – | > 16000 | CC[C@H](C)[C@H](NC(C)=O)C(=O)N[C@H]1CSSC[C@@H](C(=O)N[C@H](C(N)=O)[C@@H](C)O)NC(=O)[C@H](CCCNC(=N)N)NC(=O)[C@H](Cc2c[nH]cn2)NC(=O)[C@H](C)NC(=O)CNC(=O)[C@H](Cc2csc3ccccc23)NC(=O)[C@H](CC(=O)O)NC(=O)[C@H](CCC(N)=O)NC(=O)[C@H](Cc2c[nH]c3ccccc23)NC(=O)[C@H](C(C)C)NC1=O [Cp01-Trp7Bta] (Ac-ICVWQD[Bta]GAHRCT-NH2; disulfide 2-12) | binding to C3b (result in words) (SPR, listed as W7Bta): strongly impaired affinity
